Source: patent US20240199677A1, “GLYCOSYLTRANSFERASE INHIBITORS” (CALIFORNIA INSTITUTE OF TECHNOLOGY, priority 2018, published 2024)

Columns and labels:
Format in all cases: cell-based
AsPc-1 cells [1] = experiment: Cell viability assay (FIG. 5), AsPc-1; conditions: after 4 days; 1.77 μM, 3.54 μM, and 14.17 μM
Experimental: The cytotoxic activity of 11 against AsPc-1 and Panc-1 cells was also measured through cell viability assays (FIG. 5). […] Similarly, the percentage of viable Panc-1 cells was near-zero after about 3 days in the presence of 11 (0.44 μM, 1.77 μM, and 7.08 μM).

AsPc-1 cells [2] = experiment: Synergistic assay (checkerboard), 11 and Gemcitabine
Experimental: The FIC index was calculated according to the following equation. ΣFIC=FICA+FICB=CA/MICA+CB/MICB where MICA and MICB are MIC of drugs A and B, CA and CB are the concentrations of drugs A and B used in combination. In these interaction studies, ΣFIC of less than 0.5 represents synergistic activity.
These experiments were performed in the same manner as those of Example 7.

KB = experiment: Cytotoxicity MTT assay, KB; conditions: Homo sapiens, KB; read-out: Cytotoxicity IC50 KB
Experimental: Selected molecules were tested for cytotoxicity (IC50) in cancer and healthy cells via a MTT colorimetric assay.
Each cell was cultured in recommended medium by ATCC, and the IC50 data were obtained with each cell line.

Structure (SMILES): NC[C@H]1O[C@@H](O[C@H]([C@H]2O[C@@H](n3ccc(=O)[nH]c3=O)[C@H](O)[C@@H]2O)[C@H](NCCCC(=O)NCc2ccc(N3CCC(Oc4ccc(C(F)(F)F)cc4)CC3)cc2)C(N)=O)[C@H](O)[C@@H]1O [Compound 11]
- AsPc-1 cell viability (AsPc-1 cells [1]): Nearly all AsPc-1 cells were killed
- AsPc-1 cells dead/alive (AsPc-1 cells [2]; Compound 11 0.0488281 μM + Gemcitabine 0.024414 μM): alive
- AsPc-1 cells dead/alive (AsPc-1 cells [2]; Compound 11 0.0488281 μM + Gemcitabine 0.048828 μM): alive
- AsPc-1 cells dead/alive (AsPc-1 cells [2]; Compound 11 0.0488281 μM + Gemcitabine 0.097656 μM): dead
- AsPc-1 cells dead/alive (AsPc-1 cells [2]; Compound 11 0.0488281 μM + Gemcitabine 0.195313 μM): dead
- AsPc-1 cells dead/alive (AsPc-1 cells [2]; Compound 11 0.0488281 μM + Gemcitabine 0.390625 μM): dead
- AsPc-1 cells dead/alive (AsPc-1 cells [2]; Compound 11 0.0976563 μM + Gemcitabine 0.024414 μM): alive
- AsPc-1 cells dead/alive (AsPc-1 cells [2]; Compound 11 0.0976563 μM + Gemcitabine 0.048828 μM): alive
- AsPc-1 cells dead/alive (AsPc-1 cells [2]; Compound 11 0.0976563 μM + Gemcitabine 0.097656 μM): dead
- AsPc-1 cells dead/alive (AsPc-1 cells [2]; Compound 11 0.0976563 μM + Gemcitabine 0.195313 μM): dead
- AsPc-1 cells dead/alive (AsPc-1 cells [2]; Compound 11 0.0976563 μM + Gemcitabine 0.390625 μM): dead
- AsPc-1 cells dead/alive (AsPc-1 cells [2]; Compound 11 0.1953125 μM + Gemcitabine 0.024414 μM): alive
- AsPc-1 cells dead/alive (AsPc-1 cells [2]; Compound 11 0.1953125 μM + Gemcitabine 0.048828 μM): alive
- AsPc-1 cells dead/alive (AsPc-1 cells [2]; Compound 11 0.1953125 μM + Gemcitabine 0.097656 μM): dead
- AsPc-1 cells dead/alive (AsPc-1 cells [2]; Compound 11 0.1953125 μM + Gemcitabine 0.195313 μM): dead
- AsPc-1 cells dead/alive (AsPc-1 cells [2]; Compound 11 0.1953125 μM + Gemcitabine 0.390625 μM): dead
- AsPc-1 cells dead/alive (AsPc-1 cells [2]; Compound 11 0.390625 μM + Gemcitabine 0.024414 μM): alive
- AsPc-1 cells dead/alive (AsPc-1 cells [2]; Compound 11 0.390625 μM + Gemcitabine 0.048828 μM): alive
- AsPc-1 cells dead/alive (AsPc-1 cells [2]; Compound 11 0.390625 μM + Gemcitabine 0.097656 μM): dead
- AsPc-1 cells dead/alive (AsPc-1 cells [2]; Compound 11 0.390625 μM + Gemcitabine 0.195313 μM): dead
- AsPc-1 cells dead/alive (AsPc-1 cells [2]; Compound 11 0.390625 μM + Gemcitabine 0.390625 μM): dead
- AsPc-1 cells dead/alive (AsPc-1 cells [2]; Compound 11 0.78125 μM + Gemcitabine 0.024414 μM): alive
- AsPc-1 cells dead/alive (AsPc-1 cells [2]; Compound 11 0.78125 μM + Gemcitabine 0.048828 μM): alive
- AsPc-1 cells dead/alive (AsPc-1 cells [2]; Compound 11 0.78125 μM + Gemcitabine 0.097656 μM): dead
- AsPc-1 cells dead/alive (AsPc-1 cells [2]; Compound 11 0.78125 μM + Gemcitabine 0.195313 μM): dead
- AsPc-1 cells dead/alive (AsPc-1 cells [2]; Compound 11 0.78125 μM + Gemcitabine 0.390625 μM): dead
- Σ FIC (AsPc-1 cells [2]; Entry 1: A 11 CA […] + B Gemcitabine CB 0.37 μM): 0.3
- Σ FIC (AsPc-1 cells [2]; Entry 2: A 11 CA 0.22 μM + B Gemcitabine CB 0.37 μM): 0.47
- IC50 (AsPc-1 cells [2]; Homo sapiens, ASPC1, 11 alone, AsPc-1 cells, read-out: IC50 A): 0.98 µM
- Concentration in combination resulting in AsPc-1 cell death (AsPc-1 cells [2]; as low as, 11 together with Gemcitabine): 0.0488 µM
- Effect of combination of 11 and Gemcitabine (AsPc-1 cells [2]; both combinations tested): synergistic effect
- IC50 (KB): 7.09 µM
